Measured values as given in patent US20090221559A1 (priority 2005, published 2009).
Like-named read-outs stand apart in the source and are kept apart here.

Key:
[1] = system: HCV replicon RNA replication in Huh-7 luc/neo (Huh-Luc) cells; experiment: HCV replicon assay (stable replicon cell reporter assay, luciferase read-out); format: cell-based, HCV type 1b
Description: (§1) The compounds of formula (I) were tested for anti-HCV activity in an assay determining their activity against NS5b polymerase and in an HCV replicon assay
The compounds of the present invention were examined for activity in the inhibition of HCV RNA replication in a cellular assay. […] The cellular assay was based on a bicistronic expression construct, as described by Lohmann et al. (1999) Science vol. 285 pp. 110-113 with modifications described by Krieger et al. (2001) Journal of Virology 75: 4614-4624, in a multi-target screening strategy. In essence, the method was as follows.
The assay utilized the stably transfected cell line Huh-7 luc/neo (hereafter referred to as Huh-Luc). This cell line harbored an RNA encoding a bicistronic expression construct comprising the wild type NS3-NS5B regions of HCV type 1b translated from an Internal Ribosome Entry Site (IRES) from encephalomyocarditis virus (EMCV), preceded by a reporter portion (FfL-luciferase), and a selectable marker portion (neo^R, neomycine phosphotransferase). The construct was bordered by 5′ and 3′ NTRs (non-translated regions) from HCV type 1b. Continued culture of the replicon cells in the presence of G418 (neo^R) was dependent on the replication of the HCV RNA. The stably transfected replicon cells that expressed HCV RNA, which replicated autonomously and to high levels, encoding inter alia luciferase, were used for screening the antiviral compounds.
The replicon cells were plated in 384 well plates in the presence of the test and control compounds which were added in various concentrations. Following an incubation of three days, HCV replication was measured by assaying luciferase activity (using standard luciferase assay substrates and reagents and a Perkin Elmer ViewLux™ ultraHTS microplate imager). […] The inhibitory activity of the compound on luciferase activity was monitored on the Huh-Luc cells, enabling a dose-response curve for each test compound.

[2] = target: T1, HCV NS5B polymerase (His-tagged, C-terminal 21 amino acid deleted NS5B, HC-J4) (Hepatitis C virus genotype 1b, UniProt O92972); experiment: NS5b polymerase assay (biochemical RdRp assay, 3H-GTP incorporation, SPA beads); parameters: species or system HCV genotype 1b
T1 construct: The cDNA encoding NS5B amino acid 1-570 (HC-J4, genotype 1b); His tag (His6, from pET-21b) (C); made in house; host or cells: E. coli BL21 (DE3)
T1 sequence (O92972 2417-3000, looked up, stated change not applied): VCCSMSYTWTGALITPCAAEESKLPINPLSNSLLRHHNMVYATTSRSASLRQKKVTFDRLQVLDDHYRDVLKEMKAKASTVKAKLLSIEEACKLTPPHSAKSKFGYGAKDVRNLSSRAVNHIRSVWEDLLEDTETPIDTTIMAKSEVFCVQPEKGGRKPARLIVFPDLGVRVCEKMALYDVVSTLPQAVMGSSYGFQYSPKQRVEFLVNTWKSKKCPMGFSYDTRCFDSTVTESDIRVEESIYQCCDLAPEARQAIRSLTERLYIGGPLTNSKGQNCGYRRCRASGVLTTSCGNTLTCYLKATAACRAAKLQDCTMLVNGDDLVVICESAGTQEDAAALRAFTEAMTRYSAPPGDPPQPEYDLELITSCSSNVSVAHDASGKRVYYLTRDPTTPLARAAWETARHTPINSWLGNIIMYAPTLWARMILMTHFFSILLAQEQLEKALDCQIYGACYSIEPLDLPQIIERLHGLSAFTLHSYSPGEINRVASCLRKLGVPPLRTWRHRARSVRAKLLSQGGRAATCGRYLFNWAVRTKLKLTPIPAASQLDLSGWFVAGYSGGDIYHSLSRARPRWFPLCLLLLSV
Description: as §1
The cDNA encoding NS5B amino acid 1-570 (HC-J4, genotype 1b, pCV-J4L6S, genebank accession number AF054247) was subcloned into the Nhe I and Xho I restriction sites of pET-21b. Expression of the subsequent His-tagged C-terminal 21 amino acid deleted NS5B was performed as follows:
Following transformation in BL21 (DE3) competent cells, bacterial cells were grown in 22 liter LB/Amp media until to reach OD600=0.4-0.6. Protein expression was induced by addition of IPTG 0.4 mM, supplemented with 10 μM MgCl2, and incubated for 14-16 hrs at 20° C. Cells were harvested, resuspended in lysis buffer (20 mM Tris-HCl pH=7.5, 0.3 M NaCl, 10% glycerol, 0.1% NP40, 4 mM MgCl2, 14 mM beta-mercaptoethanol, with tablet of EDTA-free protease cocktail inhibitors) and lysed by sonification. The cell lysate was cleared by high-speed centrifugation (20K×g for 30 min), captured on Ni-NTA beads for 70 min at 4° C., and eluted with 25 mM Hepes pH 7.5, 0.5 M NaCl, 10% glycerol, 14 mM BME, 500 mM imidazole. The eluent was dialysed against 25 mM Hepes pH 7.5, 10% glycerol, 50 mM NaCl, 14 mM BME, after which the protein was further purified by heparin chromatography using the same buffer with 1 M NaCl for elution. Fractions containing pure protein were collected, dialyzed against storage buffer 25 mM Hepes pH=7.5, 300 mM NaCl, 10% glycerol, 14 mM BME), and flash-freezed in liquid nitrogen.
Measurement of HCV NS5B polymerization activity was performed by evaluating the amount of radiolabeled GTP incorporated by the enzyme in a newly synthesized RNA using heteropolymeric RNA template/primer. The highthroughput RdRp assay was carried out in 384-well plates using 200 nM enzyme, 0.1 μCi of ^3H GTP, 5 mM MgCl2, 600 nM GTP, 30 nM PolyC, 300 nM 5′-biotinylated oligo(rG13)/poly(rC) in 20 mM Tris pH 7.5, 21 mM KCl, 2.5 mM DTT, 16.7 mM NaCl and 0.17 mM EDTA. Test compounds were dissolved in dimethylsulfoxide. The test compounds were added to the preformed polymerase-template complex, and incubated at room temperature (RT) for 15 min before the addition of NTPs. The 30-μl reaction was terminated after 2 h at 25° C. upon addition of 30-μl PVT-SPA beads (Amersham Biosciences RPNQ0009, 5 mg/ml in 0.5 M EDTA).

[3] = Hepatitis C virus, Huh-7, 72 h, read-out: Replicon Assay EC50, Huh-Luc cells, three days incubation, luciferase activity
[4] = NS5B Polymerase Assay IC50, 200 nM enzyme, 3H-GTP incorporation, 2 h at 25° C.
[5] = Huh-Luc cells, three days incubation, luciferase activity, read-out: Replicon Assay EC50
[6] = 200 nM enzyme, 3H-GTP incorporation, 2 h at 25° C., read-out: NS5B Polymerase Assay IC50
[7] = Hepatitis C virus, Huh-7, 72 h, read-out: Replicon Assay EC50 (μM), Huh-Luc cells, incubation of three days, luciferase activity
[8] = NS5B Polymerase Assay IC50 (μM)

SMILES | EC50 [1, 3] | IC50 [2, 4] | EC50 [1, 7] | IC50 [2, 8] | other results
COc1ccccc1C1C2=C(CC(C)(C)CC2=O)Nc2ccccc2N1C(C)=O (centres unmarked) [compound 128] | > 32 µM | > 42.7 µM | – | – | –
CC1(C)CC(=O)C2=C(C1)Nc1ccccc1N(C(=O)c1ccccc1)C2c1ccc(F)cc1 (centres unmarked) [compound 77] | 21.2 µM | > 42.7 µM | – | – | –
COc1ccc(C2CC(=O)C3=C(C2)Nc2ccccc2N(C(C)=O)C3c2cccc(Cl)c2)cc1OC (mixture of isomers) [compound 198] | – | – | – | – | EC50 [1, 5]: 9.22 µM; IC50 [2, 6]: > 33.3 µM
CC(=O)N1c2ccccc2NC2=C(C(=O)CC(C)(C)C2)C1c1cccc(OCc2ccccc2)c1 (centres unmarked) [compound 136, 10-acetyl-11-(3-benzyloxyphenyl)-3,3-dimethyl-2,3,4,5,10,11-hexahydro-1H-dibenzo[b,e][1,4]diazepin-1-one] | 9.51 µM | > 133 µM | – | – | –
CC1(C)CC(=O)C2=C(C1)Nc1ccccc1N(C(=O)c1ccccc1F)C2c1ccccc1OCc1ccccc1 (centres unmarked) [compound 27] | 20.7 µM | > 42.7 µM | – | – | –
CCCCC(=O)N1c2ccccc2NC2=C(C(=O)CC(C)(C)C2)C1c1ccc(-c2cccc([N+](=O)[O-])c2)o1 (centres unmarked) [compound 255] | 21.8 µM | > 42.7 µM | – | – | –
COc1ccc(C2CC(=O)C3=C(C2)Nc2ccccc2NC3c2cc(Br)ccc2OC)cc1 (centres unmarked) [compound 335] | – | – | 11.9 µM | > 42.7 µM | –
CC(=O)N1c2ccccc2NC2=C(C(=O)CC(C)(C)C2)C1c1ccc(Cl)cc1 (centres unmarked) [compound 111] | > 32 µM | > 42.7 µM | – | – | –
CCCCC(=O)N1c2ccccc2NC2=C(C(=O)CC(C)(C)C2)C1c1ccc2c(c1)OCO2 (centres unmarked) [compound 265] | 11.3 µM | > 42.7 µM | – | – | –
O=C1CC(c2ccccc2)CC2=C1C(c1ccccc1C(F)(F)F)Nc1ccccc1N2 (centres unmarked) [compound 407] | – | – | 15.6 µM | > 33.3 µM | –
COC(=O)c1ccc(C2Nc3ccccc3NC3=C2C(=O)CC(c2ccccc2)C3)cc1 (centres unmarked) [compound 374] | – | – | 10.1 µM | > 42.7 µM | –
CC1(C)CC(=O)C2=C(C1)Nc1ccccc1N(C(=O)C(F)(F)F)C2c1ccc2c(c1)OCO2 (centres unmarked) [compound 266] | 24 µM | > 42.7 µM | – | – | –
COc1ccc(C2CC(=O)C3=C(C2)Nc2ccccc2NC3c2cccc(O)c2)cc1 (centres unmarked) [compound 392] | – | – | 22.6 µM | > 42.7 µM | –
CCCCOc1ccc(C2C3=C(CC(C)(C)CC3=O)Nc3ccccc3N2C(=O)C(C)C)cc1 (centres unmarked) [compound 14] | 10.6 µM | > 33.3 µM | – | – | –
Cc1ccc(C2Nc3ccccc3NC3=C2C(=O)CC(c2ccccc2)C3)cc1 (centres unmarked) [compound 344] | – | – | 21.6 µM | > 42.7 µM | –
CC1(C)CC(=O)C2=C(C1)Nc1ccccc1NC2c1cc(Cl)cc(Cl)c1 (centres unmarked) [compound 436, 11-[3,5-dichlorophenyl]-3,3-dimethyl-2,3,4,5,10,11-hexahydro-1H-dibenzo[b,e][1,4]diazepin-1-one] | – | – | 19.7 µM | > 133 µM | –

SMILES | EC50 [1, 3] | IC50 [2, 4] | EC50 [1, 7] | IC50 [2, 8] | other results
O=C1CC(c2ccc(Cl)cc2)CC2=C1C(c1ccc(C(F)(F)F)cc1)Nc1ccccc1N2 (centres unmarked) [compound 377] | – | – | 4.46 µM | > 42.7 µM | –
CC(=O)N1c2ccccc2NC2=C(C(=O)CC(C)(C)C2)[C@H]1c1ccc(OCc2ccccc2)cc1 (single isomer, unassigned) [compound 301] | 15.3 µM | 1.52 µM | – | – | –
COc1ccc(C2C3=C(CC(C)(C)CC3=O)Nc3ccccc3N2C(C)=O)c(OC)c1 (centres unmarked) [compound 132] | 12.8 µM | > 42.7 µM | – | – | –
CC1(C)CC(=O)C2=C(C1)Nc1ccccc1N(C(=O)c1ccc(Br)cc1)C2c1ccco1 (centres unmarked) [compound 254] | 15.3 µM | > 42.6 µM | – | – | –
COc1ccc(C2CC(=O)C3=C(C2)Nc2ccccc2NC3c2cccc(Oc3ccccc3)c2)cc1 (centres unmarked) [compound 331] | – | – | 7.44 µM | > 42.7 µM | –
CC1(C)CC(=O)C2=C(C1)Nc1ccccc1N(CC(=O)O)C2c1ccc(Cl)cc1Cl (centres unmarked) [compound 511] | – | – | > 100 µM | 1.9 µM | –
CC(=O)N1c2c(C)cccc2NC2=C(C(=O)CC(C)(C)C2)C1c1ccc(Cl)cc1Cl (centres unmarked) [compound 314] | 3 µM | 4.43 µM | – | – | –
COc1ccc(C2Nc3ccccc3NC3=C2C(=O)CC(C)(C)C3)cc1OCc1ccccc1 (centres unmarked) [compound 424] | – | – | 12.5 µM | 11.6 µM | –
O=C1C[C@@H](c2ccccc2)CC2=C1[C@H](c1ccc3c(c1)OCO3)Nc1ccc(C(=O)c3ccccc3)cc1N2 [compound 491] | – | – | 12.1 µM | > 42.7 µM | –
CCCCCC(=O)N1c2ccccc2NC2=C(C(=O)CC(c3ccc(Cl)cc3)C2)C1c1ccc(OC)cc1 (mixture of isomers) [compound 215] | – | – | – | – | EC50 [1, 5]: 14.1 µM; IC50 [2, 6]: > 33.3 µM
CC(=O)N1c2ccccc2NC2=C(C(=O)CC(C)(C)C2)C1c1ccc(Cl)cc1Cl (single isomer, unassigned) [compound 36, 10-Acetyl-11-(2,4-dichlorophenyl)-2,3,4,5,10,11-hexahydro-3,3-dimethyl-1H-dibenzo[b,e][1,4]diazepin-1-one] | 17 µM | > 41.3 µM | – | – | –
CC(=O)N1c2ccccc2NC2=C(C(=O)CC(C)(C)C2)C1c1cc2c(cc1Br)OCO2 (centres unmarked) [compound 277] | 13.6 µM | > 42.7 µM | – | – | –
CC(C)C(=O)N1c2ccccc2NC2=C(C(=O)CC(C)(C)C2)C1c1ccc(Br)s1 (centres unmarked) [compound 262] | 5.54 µM | > 42.7 µM | – | – | –
CCC(=O)N1c2ccccc2NC2=C(C(=O)CC(C)(C)C2)C1c1ccccc1OCc1ccccc1 (centres unmarked) [compound 11] | 14.7 µM | > 42.7 µM | – | – | –
COc1ccc(C2C3=C(CC(c4ccc(C)cc4)CC3=O)Nc3ccccc3N2C(=O)C(F)(F)F)cc1 (mixture of isomers) [compound 194] | – | – | – | – | EC50 [1, 5]: 5.22 µM; IC50 [2, 6]: > 33.3 µM
